Values of other authors, collected in paper PMC4338372 (FEBS Open Bio, 2015).

Tested on: Src family kinase
Settings: macrophages; inhibition of Src family kinase

For `CC(C)(C)n1nc(-c2ccc(Cl)cc2)c2c(N)ncnc21` [PP2], the phagocytosis efficiency is given as “decreases phagocytosis efficiency in macrophages”.
